Tests used:
[1] = Chemical stability of isocyanates; format: physicochemical; settings: for half-life: physiological pH and temperature; for stability (hydrolysis): water-acetone (1:3), 57° C., three-day period, pH 6.0
Description: Both have half-lives of greater than 30 minutes at physiological pH and temperature.

[2] = system: Yancey's lymphocytic leukemia (YLL); test: Single-dose treatment against two-day Yancey's lymphocytic leukemia (increase in median life span); format: in vivo, mouse
Description: (§1) The effect of NCNU was tested against Yancey's lymphocytic leukemia (YLL) which had been implanted subcutaneously (sc) two days before injection of the drug. The single injection of 0.1 ml of a solution of one spleen of a YLL bearing mouse homogenized in 10 ml Locke's Solution was given either intraperitoneally or subcutaneously.
(§2) Effects of Single-Dose Treatment with NCNU Against
Two-Day Yancey's Lymphocytic Leukemia
(§3) experiments are continuing.

[3] = Toxicity of single-dose NCNU ip in normal mice (deaths); design: species or system CDFl mice; settings: in vivo; for mortality at 192 h: at day 8; for mortality at 24 h: at day 1; for mortality at 216 h: at day 9
Description: Toxicity studies were conducted by injecting a single dose of NCNU ip.
Toxicity of NCNU in CDFl Normal Mice

[4] = system: Yancey's lymphocytic leukemia (YLL); test: NCNU against Yancey's lymphocytic leukemia, treatment begun day 2 or 7, several schedules; format: in vivo, mouse
Description: as §1
The study of Experiment III was conducted with NCNU treatment beginning at 2 or 7 days after implantation of YLL tumors. NCNU injection was ip or sc on a schedule of one time per week for 4 weeks, twice per week for 4 weeks, or a single dose.
Effects of NCNU Against Yancey's
as §3

[5] = system: murine leukemia P388 tumor cells; test: Single-dose treatment against two-day murine leukemia P388 (increase in median lifespan); format: in vivo, CDF1 mice
Description: (§4) A single dose of 1-neopentyl-3-(2-chloroethyl)-3-nitrosourea (NCNU) was injected intraperitoneally (ip) in CDF1 mice which had been implanted ip two days earlier with approximately 10×10^5 murine leukemia L1210 tumor cells. The NCNU was dissolved in emulphor EL-620 (polyoxyethylated; GAF Corporation, New York, N.Y.) and raised to the desired volume with 0.85% sodium chloride.
The study of Experiment I was conducted using approximately 5×10^5 murine leukemia P388 tumor cells (0.1 ml of a 1:100 dilution).
as §2
Two-Day Murine Leukemia P388
as §3

various forms of cancer = test: Human studies, patients having advanced stages of various forms of cancer; format: in vivo; settings: two 25 mg/kg sc doses or iv, total 50 mg/kg daily
Description: Patients having advanced stages of various forms of cancer are treated by subcutaneous injection of two 25 mg/kg doses of NCNU in water or by intravenous administration of 1 milligram NCNU/ml 0.9% saline to provide a total daily dose of 50 mg/kg; a full clinical examination is carried out prior to and after administration. Tumor growth is measured where possible by palpition, X-rays and photography.

[6] = system: murine leukemia L1210 tumor cells; test: Single-dose treatment against two-day murine leukemia L1210 (increase in median lifespan); format: in vivo, CDF1 mice
Description: as §4, §2
Two-Day Murine Leukemia L1210
as §3

Solubility = format: physicochemical; settings: prevented its clinical evaluation

CC(C)(C)CCN=C=O [neohexyl isocyanate]
half-life [1]: > 30 min
stability (hydrolysis) [1]: remarkably stable

CC(C)(C)CNC(=O)N(CCCl)N=O [NCNU, 1-neopentyl-3-(2-chloroethyl)-3-nitrosourea]
% ILS ([2]; 0.5 mg/mouse ip, single dose (first entry)): 14.3%
% ILS ([2]; 0.5 mg/mouse ip, single dose (second entry)): 6.7%
% ILS ([2]; 0.5 mg/mouse sc, single dose (first entry)): 35.7%
% ILS ([2]; 0.5 mg/mouse sc, single dose (second entry)): 13.3%
% ILS ([2]; 1.0 mg/mouse ip, single dose (first entry)): 64.3%
% ILS ([2]; 1.0 mg/mouse ip, single dose (second entry)): 33.3%
% ILS ([2]; 1.0 mg/mouse sc, single dose (first entry)): 64.3%
% ILS ([2]; 1.0 mg/mouse sc, single dose (second entry)): 20.0%
% ILS ([2]; 2.0 mg/mouse ip, single dose, + = animals not yet all died): ≥ 264%
% ILS ([2]; 2.0 mg/mouse sc, single dose): 78.0%
% ILS ([2]; 25 mg/kg ip, single dose): 13.3%
% ILS ([2]; 25 mg/kg sc, single dose): 6.6%
% ILS ([2]; 50 mg/kg ip, single dose): 60.0%
% ILS ([2]; 50 mg/kg sc, single dose): 60.0%
% ILS ([2]; 75 mg/kg ip, single dose): 66.6%
% ILS ([2]; 75 mg/kg sc, single dose): 73.3%
mortality ([3]; 1.0 mg/mouse ip): 0%
mortality at 312 h ([3]; 2.0 mg/mouse ip, at day 13, others survived): 60%
mortality at 240 h ([3]; 4.0 mg/mouse ip, at day 10): 100%
mortality at 192 h ([3]; 8.0 mg/mouse ip): 100%
mortality at 96 h ([3]; 16.0 mg/mouse ip, at day 4): 100%
mortality at 24 h ([3]; 20.0 mg/mouse ip): 100%
mortality at 24 h ([3]; 32.0 mg/mouse ip): 100%
mortality at 312 h ([3]; mouse, 100 mg/kg ip, at day 13): 100%
mortality at 264 h ([3]; mouse, 150 mg/kg ip, at day 11): 100%
mortality at 216 h ([3]; mouse, 200 mg/kg ip): 100%
mortality at 216 h ([3]; mouse, 225 mg/kg ip): 100%
mortality at 192 h ([3]; mouse, 250 mg/kg ip): 100%
mortality at 120 h ([3]; mouse, 500 mg/kg ip, at day 5): 100%
mortality at 48 h ([3]; mouse, 750 mg/kg ip, at day 2): 100%
mortality at 24 h ([3]; mouse, 1000 mg/kg ip): 100%
% ILS ([4]; 0.5 mg/mouse ip, 1x/wk for 4 wks, begun day 2): 28.6%
% ILS ([4]; 0.5 mg/mouse ip, once, begun day 7): 6.7%
% ILS ([4]; 0.5 mg/mouse sc, 1x/wk for 4 wks, begun day 2, + = animals not yet all died): ≥ 114.3%
% ILS ([4]; 0.5 mg/mouse sc, once, begun day 7): 6.7%
% ILS ([4]; 1.0 mg/mouse ip, 1x/wk for 4 wks, begun day 2): 178.6%
% ILS ([4]; 1.0 mg/mouse ip, once, begun day 7): 66.6%
% ILS ([4]; 1.0 mg/mouse sc, 1x/wk for 4 wks, begun day 2, + = animals not yet all died): ≥ 207.1%
% ILS ([4]; 1.0 mg/mouse sc, once, begun day 7): 66.6%
% ILS ([4]; 2.0 mg/mouse ip, 1x/wk for 4 wks, begun day 2): 14.3%
% ILS ([4]; 2.0 mg/mouse sc, 1x/wk for 4 wks, begun day 2, + = animals not yet all died): ≥ 264%
% ILS ([4]; 25 mg/kg ip, 1x/wk for 4 wks, begun day 2, + = animals not yet all died): ≥ 100%
% ILS ([4]; 25 mg/kg ip, 2x/wk for 4 wks, begun day 2, + = animals not yet all died): ≥ 100%
% ILS ([4]; 25 mg/kg sc, 1x/wk for 4 wks, begun day 2, + = animals not yet all died): ≥ 100%
% ILS ([4]; 25 mg/kg sc, 2x/wk for 4 wks, begun day 2, + = animals not yet all died): ≥ 100%
% ILS ([4]; 50 mg/kg ip, 1x/wk for 4 wks, begun day 2, + = animals not yet all died): ≥ 100%
% ILS ([4]; 50 mg/kg ip, 2x/wk for 4 wks, begun day 2, + = animals not yet all died): ≥ 100%
% ILS ([4]; 50 mg/kg sc, 1x/wk for 4 wks, begun day 2, + = animals not yet all died): ≥ 100%
% ILS ([4]; 50 mg/kg sc, 2x/wk for 4 wks, begun day 2, + = animals not yet all died): ≥ 100%
% ILS ([4]; 75 mg/kg ip, 1x/wk for 4 wks, begun day 2, + = animals not yet all died): ≥ 100%
% ILS ([4]; 75 mg/kg ip, 2x/wk for 4 wks, begun day 2): 66.6%
% ILS ([4]; 75 mg/kg sc, 1x/wk for 4 wks, begun day 2, + = animals not yet all died): ≥ 100%
% ILS ([4]; 75 mg/kg sc, 2x/wk for 4 wks, begun day 2): 0%
% ILS ([5]; 0.5 mg/mouse): 41.5%
% ILS ([5]; 1.0 mg/mouse): 91.7%
% ILS ([5]; 2.0 mg/mouse, + = animals not yet all died): ≥ 483%
inflammation (various forms of cancer): Inflammation gradually subsides
tumor size (various forms of cancer): tumor size frequently decreases
clinical improvement (various forms of cancer; within several days): marked clinical improvement within several days
% ILS (increase in median lifespan) ([6]; 25 mg/kg ip): 37.5%
% ILS (increase in median lifespan) ([6]; 50 mg/kg ip): 100%
% ILS (increase in median lifespan) ([6]; 75 mg/kg ip, + = animals not yet all died): ≥ 275%
% ILS (increase in median lifespan) ([6]; 100 mg/kg ip, + = animals not yet all died): ≥ 275%

CC(C)(C)CN=C=O [neopentyl isocyanate]
half-life [1]: > 30 min
stability (hydrolysis) [1]: remarkably stable

CC(C)(C)CNC(=O)N(CC(C)(C)C)N=O
solubility (Solubility): limited solubility
